Like-named read-outs stand apart in the source and are kept apart here.
Columns and labels:
SW 620 (colon carcinoma) [1] = conditions: c = 10^-4 M, cited from earlier work
Source text: Table 3 Growth inhibition effects of OGF-related peptides. | column: PG(%) ^a / SW620

MCF-7 (breast carcinoma) [2] = conditions: c = 10^-4 M, cited from earlier work
Source text: Table 3 Growth inhibition effects of OGF-related peptides. | column: PG(%) ^a / MCF-7

[3] = tested on: HeLa (cervical carcinoma); conditions: c = 10^-4 M, cited from earlier work
Source text: Table 3 Growth inhibition effects of OGF-related peptides. | column: PG(%) ^a / HeLa

SW 620 (colon carcinoma) [4] = assay: Proliferation assay (MTT), SW 620 cells; assay type: cell-based; conditions: c = 10^-4 M, 72 h incubation, absorbance 570 nm, quadruplicate in three individual experiments
Source text: (§1) Peptides 10, 12–14 as well as trisulfoxide derivative 15 were screened for possible antiproliferative effects on three cell lines: SW 620 (colon carcinoma), MCF-7 (breast carcinoma) and HeLa (cervical carcinoma), according to the previously published procedure. Table 3 summarizes activities found for tested peptides, expressed as percentage of growth (PG) of three cell lines, together with values for OGF and three OGF-related peptides proposed by the SVM radial basis function kernel (RBF). […] Therefore, the approach presented here managed to select peptides with improved biological activities from virtual library.
(§2) The biological potential of prepared compounds has been tested in the Laboratory for experimental therapy (Ruđer Bošković Institute) following the previously published procedure. Briefly, MCF-7, SW 620 and HeLa cells were cultured as monolayers and maintained in Dulbecco’s modified Eagle medium (DMEM), supplemented with 10% fetal bovine serum (FBS), 2mM L-glutamine, 100 U/mL penicillin and 100 μg/mL streptomycin in a humidified atmosphere with 5% CO2 at 37 °C. The panel cell lines were inoculated onto a series of standard 96-well microtiter plates on day 0, at 1 × 10^4 to 3 × 10^4 cells/mL, depending on the doubling times of specific cell line. Test agents were then added in five, 10-fold dilutions (10^−8 to 10^−4 M) and incubated for a further 72 hours. Working dilutions were freshly prepared on the day of testing. The solvent was also tested for eventual inhibitory activity by adjusting its concentration to be the same as in working concentrations. After 72 hours of incubation the cell growth rate was evaluated by performing the MTT assay. For this purpose the substance treated medium was discarded and MTT was added to each well at a concentration of 20 μg/40 μL. After four hours of incubation the precipitates were dissolved in 160 μL of dimethylsulphoxide (DMSO). The absorbance that is directly proportional to the number of living, metabolically active cells was measured on a microplate reader at 570 nm. Each test point was performed in quadruplicate in three individual experiments.

MCF-7 (breast carcinoma) [5] = assay: Proliferation assay (MTT), MCF-7 cells; assay type: cell-based; conditions: c = 10^-4 M, 72 h incubation, absorbance 570 nm, quadruplicate in three individual experiments
Source text: as §1, §2

[6] = tested on: HeLa (cervical carcinoma); assay: Proliferation assay (MTT), HeLa cells; assay type: cell-based; conditions: c = 10^-4 M, 72 h incubation, absorbance 570 nm, quadruplicate in three individual experiments
Source text: as §1, §2

[7] = Oxidation of Met residues to sulfoxide during acid Boc deprotection; assay type: physicochemical; conditions: cold TFA-H2O (9:1), ice bath, 5 min, full scan MS: only traces of 11 (m/z 750), oxidized forms m/z 766, 782, 798
Protocol: Synthesis of methionine rich peptides 10–14 was based on the 2 + 2 and 2 + 3 coupling between Boc-protected dipeptides 1–4 and H-Met-Met-OH or H-Met-Met-Met-OH (Scheme 1). Different methods of peptide bond formation were tested; finally peptides 5–7 were obtained by the DCC/HOSu method, activation with HATU yielded Ada-containing pentapeptide 8, while pentapeptide 9 was obtained by the mixed anhydride method (details in the Experimental section). Finally, deprotection of the Boc group was performed by acid hydrolysis and extra precautions were taken due to the known susceptibility of methionine residue toward acid-promoted oxidation to sulfoxide. Therefore, deprotection step was performed in ice bath, crude product was immediately purified by the HPLC and residual acid removed by passing through the short C18 column. […] During the purification procedure, only oxidized product 15 was isolated. All prepared compounds were characterized by NMR spectroscopy and deprotected compounds 10 and 12–15 additionally by tandem mass spectrometry and HRMS. The main feature of MS/MS spectra of the molecular [M + H]^+ ions of all peptides is high abundance of Y” and B-type fragment ions (Figure S1, Supplementary Information).
Boc-protected peptides 5–9 were treated with cold TFA-H2O (9:1) mixture in ice bath for 5 min. […]

H-Phe-Ada-Gly-Phe-Met-OH
PG(%) SW620 (percentage of growth) (SW 620 (colon carcinoma) [1]): 35% | PG(%) MCF-7 (percentage of growth) (MCF-7 (breast carcinoma) [2]): 39% | PG(%) HeLa (percentage of growth) [3]: 49%

H-Tyr-(R)-Ada-Gly-OH
PG(%) SW620 (percentage of growth) (SW 620 (colon carcinoma) [1]; training set peptides): 87% | PG(%) MCF-7 (percentage of growth) (MCF-7 (breast carcinoma) [2]; training set peptides): 100% | PG(%) HeLa (percentage of growth) ([3]; training set peptides): 89%

H-Phe-Ada-Met(O)-Met(O)-Met(O)-OH [Compound 15]
PG(%) SW620 (percentage of growth) (SW 620 (colon carcinoma) [4]): 77% | PG(%) MCF-7 (percentage of growth) (MCF-7 (breast carcinoma) [5]): 82% | PG(%) HeLa (percentage of growth) [6]: 64%

H-Phe-Ada-Gly-Phe-Phe-OH
PG(%) SW620 (percentage of growth) (SW 620 (colon carcinoma) [1]): 39% | PG(%) MCF-7 (percentage of growth) (MCF-7 (breast carcinoma) [2]): 41% | PG(%) HeLa (percentage of growth) [3]: 23%

H-Tyr-(S)-Ada-OH
PG(%) SW620 (percentage of growth) (SW 620 (colon carcinoma) [1]; training set peptides): 72% | PG(%) MCF-7 (percentage of growth) (MCF-7 (breast carcinoma) [2]; training set peptides): 100% | PG(%) HeLa (percentage of growth) ([3]; training set peptides): 92%

H-Tyr-(R)-Ada-OH
PG(%) SW620 (percentage of growth) (SW 620 (colon carcinoma) [1]; training set peptides): 88% | PG(%) MCF-7 (percentage of growth) (MCF-7 (breast carcinoma) [2]; training set peptides): 99% | PG(%) HeLa (percentage of growth) ([3]; training set peptides): 97%

H-Tyr-(S)-Ada-Gly-OH
PG(%) SW620 (percentage of growth) (SW 620 (colon carcinoma) [1]; training set peptides): 85% | PG(%) MCF-7 (percentage of growth) (MCF-7 (breast carcinoma) [2]; training set peptides): 100% | PG(%) HeLa (percentage of growth) ([3]; training set peptides): 90%

H-Phe-Ala-Met-Met-OH [Compound 13]
PG(%) SW620 (percentage of growth) (SW 620 (colon carcinoma) [4]): 86% | PG(%) MCF-7 (percentage of growth) (MCF-7 (breast carcinoma) [5]): 68% | PG(%) HeLa (percentage of growth) [6]: 71%

H-Tyr-Ala-Met-Met-Met-OH [Compound 14]
PG(%) SW620 (percentage of growth) (SW 620 (colon carcinoma) [4]): 97% | PG(%) MCF-7 (percentage of growth) (MCF-7 (breast carcinoma) [5]): 71% | PG(%) HeLa (percentage of growth) [6]: 91%

H-Tyr-Ada-Gly-Phe-Met-OH
PG(%) SW620 (percentage of growth) (SW 620 (colon carcinoma) [1]; training set peptides): 85% | PG(%) MCF-7 (percentage of growth) (MCF-7 (breast carcinoma) [2]; training set peptides): 100% | PG(%) HeLa (percentage of growth) ([3]; training set peptides): 85%

H-Phe-Ala-Met-Met-Met-OH [Compound 10]
PG(%) SW620 (percentage of growth) (SW 620 (colon carcinoma) [4]): 100% | PG(%) MCF-7 (percentage of growth) (MCF-7 (breast carcinoma) [5]): 74% | PG(%) HeLa (percentage of growth) [6]: 88%

H-Phe-Ada-Met-Met-Met-OH [Compound 11, Ada-containing pentapeptide, only traces seen; oxidized to 15 during deprotection]
Susceptibility of Met residues to oxidation (sulfoxide formation) [7]: extreme susceptibility to oxidation

H-Tyr-Gly-Gly-Phe-Met-OH [OGF, native opioid growth factor (OGF), Met-enkephalin]
PG(%) SW620 (percentage of growth) (SW 620 (colon carcinoma) [4]): 85% | PG(%) MCF-7 (percentage of growth) (MCF-7 (breast carcinoma) [5]): 92% | PG(%) HeLa (percentage of growth) [6]: 88%

H-Phe-Gly-Met-Met-Met-OH [Compound 12]
PG(%) SW620 (percentage of growth) (SW 620 (colon carcinoma) [4]): 95% | PG(%) MCF-7 (percentage of growth) (MCF-7 (breast carcinoma) [5]): 86% | PG(%) HeLa (percentage of growth) [6]: 86%

H-Tyr-Ada-Gly-Phe-Phe-OH
PG(%) SW620 (percentage of growth) (SW 620 (colon carcinoma) [1]): 38% | PG(%) MCF-7 (percentage of growth) (MCF-7 (breast carcinoma) [2]): 81% | PG(%) HeLa (percentage of growth) [3]: 71%
